Measured values: BigSolDB 2.1

CC1(C)[C@H](C(=O)O)N2C(=O)[C@@H](NC(=O)Cc3ccccc3)[C@H]2S1=O (stereo partly drawn)
Conditions	solubility (mole fraction)
in MIBK, 278.15 K	0.00173
in MIBK, 287.85 K	0.00184
in MIBK, 295.15 K	0.00201
in MIBK, 297.95 K	0.00213
in MIBK, 303.35 K	0.00227
in MIBK, 308.05 K	0.00238
in MIBK, 313.35 K	0.00262
in MIBK, 317.65 K	0.00278
in MIBK, 323.75 K	0.00316
in ethyl acetate, 273.15 K	0.00211
in ethyl acetate, 278.15 K	0.00222
in ethyl acetate, 283.25 K	0.00227
in ethyl acetate, 288.15 K	0.00233
in ethyl acetate, 292.75 K	0.00256
in ethyl acetate, 298.55 K	0.0028
in ethyl acetate, 303.15 K	0.00316
in ethyl acetate, 307.45 K	0.00338
in ethyl acetate, 312.85 K	0.00383
in ethyl acetate, 317.65 K	0.0044
in ethyl acetate, 321.25 K	0.00486
in n-butyl acetate, 273.15 K	0.000603
in n-butyl acetate, 278.25 K	0.000678
in n-butyl acetate, 281.95 K	0.000735
in n-butyl acetate, 287.65 K	0.000825
in n-butyl acetate, 292.55 K	0.000979
in n-butyl acetate, 297.35 K	0.0011
in n-butyl acetate, 302.95 K	0.00134
in n-butyl acetate, 307.65 K	0.00151
in n-butyl acetate, 312.65 K	0.00166
in n-butyl acetate, 317.65 K	0.00192
in toluene, 283.15 K	2.74e-05
in toluene, 288.35 K	3.68e-05
in toluene, 293.95 K	5.26e-05
in toluene, 298.15 K	6.12e-05
in toluene, 303.45 K	6.97e-05
in toluene, 311.65 K	8.7e-05
in toluene, 316.85 K	0.000105
in toluene, 323.65 K	0.000113
